In ChEMBL document CHEMBL3774317, “Design and synthesis of novel tamoxifen analogues that avoid CYP2D6 metabolism” (Eur J Med Chem, 2016) one finds growth data, which are given here for two compounds.

The structures appear in SMILES notation.

Assay type in all cases: functional
In one test the test system is HT-29. Briefly: Cytotoxicity against human HT-29 cells assessed as cell growth at 10^-8 M after 48 hrs by SRB assay. The following applies: HT-29, 48 h, read-out: Activity. A general note: In SRB staining, fixed cells bind dye roughly in proportion to their protein.
Another test deals with EKVX. In words: Cytotoxicity against human EKVX cells assessed as cell growth at 10^-8 M after 48 hrs by SRB assay. The following applies: read-out: Activity.
Test [1] can be described thus: Cytotoxicity against human SF295 cells assessed as cell growth at 10^-5 M after 48 hrs by SRB assay. The following applies: SF-295, 48 h, read-out: Activity.
The test system of test [2] is NCI-H522. In words: Cytotoxicity against human NCI-H522 cells assessed as cell growth at 10^-4 M after 48 hrs by SRB assay. The settings on record: NCI-H522, 48 h, read-out: Activity.
The nature of test [3]: Cytotoxicity against human HOP62 cells assessed as cell growth at 10^-7 M after 48 hrs by SRB assay. The following applies: HOP-62, 48 h, read-out: Activity.
A short description of test [4]: Cytotoxicity against human RPMI8226 cells assessed as cell growth at 10^-7 M after 48 hrs by SRB assay. The settings on record: RPMI-8226, 48 h, read-out: Activity.
The nature of test [5]: Cytotoxicity against human OVCAR3 cells assessed as cell growth at 10^-7 M after 48 hrs by SRB assay. The settings on record: OVCAR-3, 48 h, read-out: Activity.
For test [6], the system named is MDA-MB-435. In words: Cytotoxicity against human MDA-MB-435 cells assessed as cell growth at 10^-4 M after 48 hrs by SRB assay. The settings on record: MDA-MB-435, 48 h, read-out: Activity.
Test [7] relates to T47D. Briefly: Cytotoxicity against human T47D cells assessed as cell growth at 10^-6 M after 48 hrs by SRB assay. The settings on record: read-out: Activity.
The test system of a further test is ACHN. Briefly: Cytotoxicity against human ACHN cells assessed as cell growth at 10^-5 M after 48 hrs by SRB assay. The settings on record: read-out: Activity.
The nature of test [8]: Cytotoxicity against human SF268 cells assessed as cell growth at 10^-7 M after 48 hrs by SRB assay. The settings on record: SF-268, 48 h, read-out: Activity.
Test [9] is described as follows: Cytotoxicity against human COLO205 cells assessed as cell growth at 10^-6 M after 48 hrs by SRB assay. The following applies: COLO 205, 48 h, read-out: Activity.
For test [10], the system named is SK-MEL-2. In words: Cytotoxicity against human SK-MEL-2 cells assessed as cell growth at 10^-5 M after 48 hrs by SRB assay. The settings on record: SK-MEL-2, 48 h, read-out: Activity.
Test [11] can be described thus: Cytotoxicity against human Caki1 cells assessed as cell growth at 10^-8 M after 48 hrs by SRB assay. The following applies: CAKI-1, 48 h, read-out: Activity.
Test [12] can be described thus: Cytotoxicity against human UACC62 cells assessed as cell growth at 0.5 uM after 48 hrs by SRB assay. The settings on record: UACC-62, 48 h, read-out: Activity.
Another test has as its system NCI-H460. Briefly: Cytotoxicity against human NCI-H460 cells assessed as cell growth at 50 uM after 48 hrs by SRB assay. The following applies: NCI-H460, 48 h, read-out: Activity.
Another test concerns A498. Briefly: Cytotoxicity against human A498 cells assessed as cell growth at 5 uM after 48 hrs by SRB assay. The following applies: A498, 48 h, read-out: Activity.
A short description of test [13]: Cytotoxicity against human TK10 cells assessed as cell growth at 5 uM after 48 hrs by SRB assay. The following applies: TK-10, 48 h, read-out: Activity.
In another test the test system is CCRF-CEM. Briefly: Cytotoxicity against human CCRF-CEM cells assessed as cell growth at 5 uM after 48 hrs by SRB assay. The following applies: read-out: Activity.
Test [14] has as its system MDA-MB-435. Briefly: Cytotoxicity against human MDA-MB-435 cells assessed as cell growth at 5 uM after 48 hrs by SRB assay. The following applies: MDA-MB-435, 48 h, read-out: Activity.
A short description of test [15]: Cytotoxicity against human HCT15 cells assessed as cell growth at 5 uM after 48 hrs by SRB assay. The settings on record: HCT-15, 48 h, read-out: Activity.
Test [16] in a line: Cytotoxicity against human SNB19 cells assessed as cell growth at 5 uM after 48 hrs by SRB assay. The following applies: SNB-19, 48 h, read-out: Activity.
The test system of a further test is M14. In words: Cytotoxicity against human M14 cells assessed as cell growth at 50 uM after 48 hrs by SRB assay. The settings on record: M14, 48 h, read-out: Activity.
The nature of test [17]: Cytotoxicity against human OVCAR8 cells assessed as cell growth at 50 uM after 48 hrs by SRB assay. The following applies: OVCAR-8, 48 h, read-out: Activity.
The nature of test [18]: Cytotoxicity against human BT549 cells assessed as cell growth at 0.5 uM after 48 hrs by SRB assay. The settings on record: BT-549, 48 h, read-out: Activity.
Test [19] can be described thus: Cytotoxicity against human NCI-ADR-RES cells assessed as cell growth at 50 nM after 48 hrs by SRB assay. The settings on record: read-out: Activity.
A short description of test [20]: Cytotoxicity against human LOXIMVI cells assessed as cell growth at 50 uM after 48 hrs by SRB assay. The following applies: LOX IMVI, read-out: Activity.
Test [21] can be described thus: Cytotoxicity against human HCC2998 cells assessed as cell growth at 0.5 uM after 48 hrs by SRB assay. The following applies: HCC 2998, 48 h, read-out: Activity.
Test [22] concerns SK-MEL-28. In words: Cytotoxicity against human SK-MEL-28 cells assessed as cell growth at 5 uM after 48 hrs by SRB assay. The following applies: SK-MEL-28, 48 h, read-out: Activity.
Test [23] is described as follows: Cytotoxicity against human SNB75 cells assessed as cell growth at 5 uM after 48 hrs by SRB assay. The settings on record: SNB-75, 48 h, read-out: Activity.
Test [24] is described as follows: Cytotoxicity against human UACC62 cells assessed as cell growth at 50 nM after 48 hrs by SRB assay. The settings on record: UACC-62, 48 h, read-out: Activity.
The test system of test [25] is SK-MEL-2. In words: Cytotoxicity against human SK-MEL-2 cells assessed as cell growth at 5 nM after 48 hrs by SRB assay. The following applies: SK-MEL-2, 48 h, read-out: Activity.
Test [26] deals with T47D. In words: Cytotoxicity against human T47D cells assessed as cell growth at 50 uM after 48 hrs by SRB assay. The settings on record: read-out: Activity.
The next test deals with K562. Briefly: Cytotoxicity against human K562 cells assessed as cell growth at 0.5 uM after 48 hrs by SRB assay. The settings on record: K562, 48 h, read-out: Activity.
In test [27] the test system is SK-MEL-28. Briefly: Cytotoxicity against human SK-MEL-28 cells assessed as cell growth at 5 nM after 48 hrs by SRB assay. The settings on record: SK-MEL-28, 48 h, read-out: Activity.
The nature of test [28]: Cytotoxicity against human SKOV3 cells assessed as cell growth at 50 nM after 48 hrs by SRB assay. The following applies: SK-OV-3, 48 h, read-out: Activity.
Test [29] can be described thus: Cytotoxicity against human RXF393 cells assessed as cell growth at 5 uM after 48 hrs by SRB assay. The following applies: RXF 393, 48 h, read-out: Activity.
The nature of test [30]: Cytotoxicity against human SNB19 cells assessed as cell growth at 50 nM after 48 hrs by SRB assay. The following applies: SNB-19, 48 h, read-out: Activity.
The nature of test [31]: Cytotoxicity against human RXF393 cells assessed as cell growth at 0.5 uM after 48 hrs by SRB assay. The settings on record: RXF 393, 48 h, read-out: Activity.
Test [32] relates to NCI-H522. Briefly: Cytotoxicity against human NCI-H522 cells assessed as cell growth at 0.5 uM after 48 hrs by SRB assay. The settings on record: NCI-H522, 48 h, read-out: Activity.
The subject of another test is MDA-MB-468. Briefly: Cytotoxicity against human MDA-MB-468 cells assessed as cell growth at 5 uM after 48 hrs by SRB assay. The following applies: MDA-MB-468, 48 h, read-out: Activity.

With `C/C(=C(/c1ccc(O)cc1)c1ccc(OCCN2CCCC2)cc1)c1ccccc1`, the growth at 0.01 µM in the test with HT-29 turned out to be 101%; in the test with EKVX, 91%; in test [11], 87%. Also, the results for the growth at 10 µM (in test [1]; in the test on ACHN; in the test on SK-MEL-2 [10]) were -57%, 25% and -67%, respectively. In addition, the growth at 100 µM in the test on NCI-H522 [2] is -82%; with MDA-MB-435 [6], -100%. Besides, the growth at 0.1 µM in [3] is 95%; in test [4], 103%; in test [5], 99%; in test [8] it was 94%. Moreover, the growth at 1 µM in the test with T47D [7] turned out to be 48%; in test [9], 88%.

Turning to `CCCCCCCCCC(=O)Oc1ccc(/C(=C(/C)c2ccccc2)c2ccc(OCCN3CCCC3)cc2)cc1`, the growth at 0.5 µM in [12] worked out at 64%; in test [18] it was 83%; in test [21], 88%; in the test on K562, 34%; in [31] it was 61%; with NCI-H522 [32], 98%. The growth at 50 µM in the test with NCI-H460 is -91%; in the test with M14 it was -81%; in [17], -58%; in test [20] it was -100%; in the test with T47D [26], -61%. Also, the growth at 5 µM in the test on A498 came out at 64%; in [13], 95%; in the test with CCRF-CEM, 88%; in the test with MDA-MB-435 [14] it was 82%; in test [15], 72%; in [16], 94%. For the same compound, the growth at 5 µM with SK-MEL-28 [22] came to 89%; in test [23], 69%; in test [29], 73%; in the test with MDA-MB-468, 76%. For the same compound, the growth at 0.05 µM in test [19] worked out at 96%; in test [24] it was 99%; in test [28], 90%; in test [30] it was 98%. Further, the growth at 0.005 µM in the test on SK-MEL-2 [25] came to 101%; in the test with SK-MEL-28 [27], 104%.
